Source: US20130345215A1, “PYRAZOLOPYRIMIDONE AND PYRAZOLOPYRIDONE INHIBITORS OF TANKYRASE” (Genentech, Inc., priority 2012, published 2013)
Where two headings read alike, the source gives them in different places.

Experiments:
[1] = molecular target: T1, Tankyrase 1 (TNKS1) (Homo sapiens, UniProt O95271); test: μHTS-TNKS-IWR2 TR-FRET Binding Assay (Example 118), His6-TNKS1
T1 construct: His6-TNKS1, MW=28.2 KDa (construct: 1088-1327, 1266M)
Procedure: (§1) μHTS-TNKS-IWR2 TR-FRET Binding Assay (10 μL/well in BD1536-well plate, a single point)
(§2) Reagents and Stock Solutions
(§3) Biotin-4-((1S,2R,6S,7R)-3,5-Dioxo-4-aza-tricyclo[5.2.1.0*2,6]dec-8-en-4-yl)-N-(4-methyl-quinolin-8-yl)-benzamide (Biotin-IWR2): 10 mM Biotin-IWR2 stock in DMSO, stored at −20° C.
(XAV939) in DMSO, stored at −20° C.
(§4) Assay buffer 1a (AB1a) for TNKS dilution: 50 mM Tris, pH 7.4, 100 mM sodium chloride solution, 1 mM magnesium chloride solution, 1 mM DL-dithiothreitol solution, 0.2 mg/mL bovine serum albumin solution, 0.025% NP-40.
(§5) Assay buffer 1b (AB1b) for Biotin-IWR2 dilution: 50 mM Tris, pH 7.4, 100 mM sodium chloride solution, 1 mM magnesium chloride solution, 1 mM DL-dithiothreitol solution, 0.2 mg/mL bovine serum albumin solution, 0.05% NP-40
(§6) Assay buffer 1c (AB1c) for compound dilution: 50 mM Tris, pH 7.4, 100 mM sodium chloride solution, 1 mM magnesium chloride solution, 1 mM DL-dithiothreitol solution, 0.2 mg/mL bovine serum albumin solution
(§7) Assay buffer 2 (AB2) for Eu/APC: 50 mM Tris, pH 7.4, 100 mM sodium chloride solution, 1 mM magnesium chloride solution, 0.2 mg/mL bovine serum albumin solution
(§8) Reagent Stock Solution Preparation
(§9) Prepare BLANK well stock solution: 5% DMSO/AB1b buffer
(§10) Prepare TNKS 1 stock solution (5× stock): 300 nM TNKS in AB1a buffer. (Alternatively, use TNKS2 or PARP1 stock solutions.)
Transfer 3 μL/well of above solution (solution 1,2,3) to an empty assay plate (BD1536-well plate) as follows: • TOTAL and cpd wells: Solution 1 (Biotin-IWR2): • BLANK wells: Solution 2 (No Biotin-IWR2): • POSITIVE CONTROL wells: Solution 3 (Biotin-IWR2+XAV939)
(§11) Transfer 3 μL/well of the above diluted compound solutions or compound dilution buffer to the above assay plate. Add 2 μL/well of 300 nM TNKS stock solution (4) to every well in the above assay plate. Centrifuge the assay plate at 2100 rpm for 2 min. Incubate the assay plate at 26° C. for 30 minutes. Add 2 μL/well 3.5 nMEu/50 nM APC solution (5) to every well in the above assay plate. Centrifuge the assay plate at 2100 rpm for 2 min. Incubate the assay plate at 26° C. for 60 min.

[2] = molecular target: T2, tankyrase 2 (TNKS2) (Homo sapiens, UniProt Q9H2K2); test: μHTS-TNKS-IWR2 TR-FRET Binding Assay (Example 118), His6-TNKS2 substituted; settings: procedure in Example 118 with His6-TNKS2
T2 construct: His6-tankyrase 2 (construct: 934-1166) (His6-TNKS2)
Procedure: as §1, §2
Tankyrase 1 (TNKS1): 184.3 μM=5.2 mg/mL His6-TNKS1, MW=28.2 KDa (construct: 1088-1327, 1266M) in 20 mM Tris pH 8, 150 mM NaCl, 10% glycerol, and 0.5 mM TCEP. Alternatively, His6-tankyrase 2 (construct: 934-1166) (His6-TNKS2) or His6-PARP1 (full length) can be substituted for His6-TNKS 1.
as §3
Positive control: 10 mM 2-(4-Trifluoromethyl-phenyl)-3,5,7,8-tetrahydro-thiopyrano[4,3-d]pyrimidin-4-one (XAV939) in DMSO, stored at −20° C.
APC-anti-His Ab: 8.50 μM SL-APC, 8.26 μM anti-6His antibody-SureLight APC (Columia Bioscience, Catalog Number D3-1711, Lot Number N01010-AAH04)
Assay plate: BD 1536-well, clear/black plate (Catalog Number 353255)
as §4, §5, §6, §7, §8
Prepare Biotinylated IWR2 stock solution (3.33× stock) for TOTL and compound wells: 200 nM Biotin-IWR2 in 5% DMSO/AB1b buffer
as §9
Prepare POSITIVE CONTROL well stock solution (3.33× stock): 200 nM XAV939 in 200 nM Biotin-IWR2/5% DMSO/AB1b buffer
as §10
Prepare Eu/APC stock solution (5× stock): 3.5 nM Eu-SA/50 nM APC-His6Ab in AB2 buffer.
Add 25 μL/well 1.5% DMSO/AB1c buffer in each compound well to the compound concentration at 74 μM in 8.8% DMSO/AB1c buffer or in the 2 μL DMSO CONTROL wells (BLANK, TOTAL and POSITIVE wells) in the compound plate. Transfer 3 μL/well of above solution (solution 1,2,3) to an empty assay plate (BD1536-well plate) as follows: • TOTAL and cpd wells: Solution 1 (Biotin-IWR2): • BLANK wells: Solution 2 (No Biotin-IWR2): • POSITIVE CONTROL wells: Solution 3 (Biotin-IWR2+XAV939)
as §11, with “60 min. Read the assay plate immediately at excitation wavelength of 330 nm and emission wavelength of […] in time resolved fluorescence mode.” for “60 min.”
XAV939 (+ve control): 60 nM at ˜70% Inhibition
General Library compounds: 22.23 μM in 4% DMSO

[3] = Compounds I-1 to I-58, procedure in Example 118 (TR-FRET, Biotin-IWR2 60 nM, TNKS 60 nM), read-out: TNKS1 (IC50)

T2 sequence (Q9H2K2 934-1166): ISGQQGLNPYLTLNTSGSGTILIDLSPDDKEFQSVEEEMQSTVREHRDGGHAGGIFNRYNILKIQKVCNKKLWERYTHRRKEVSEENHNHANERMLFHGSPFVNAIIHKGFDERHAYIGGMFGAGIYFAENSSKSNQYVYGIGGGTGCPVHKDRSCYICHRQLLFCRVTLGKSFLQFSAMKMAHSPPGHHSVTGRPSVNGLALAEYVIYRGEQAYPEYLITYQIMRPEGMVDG
T1 sequence (O95271 1088-1327): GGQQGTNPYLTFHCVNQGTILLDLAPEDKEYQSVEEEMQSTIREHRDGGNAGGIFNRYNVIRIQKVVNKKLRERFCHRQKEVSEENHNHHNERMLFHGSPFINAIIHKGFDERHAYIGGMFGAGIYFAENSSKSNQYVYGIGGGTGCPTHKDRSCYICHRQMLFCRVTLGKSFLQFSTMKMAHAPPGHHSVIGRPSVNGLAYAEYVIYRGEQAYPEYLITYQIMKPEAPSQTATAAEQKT

Cn1ncc2c(=O)[nH]c(N3CCN(c4c(F)cccc4F)CC3)cc21 [Compound I-51, 6-[4-(2 6-difluorophenyl)piperazin-1-yl]-1-methyl-5H-pyrazolo[4 3-c]pyridin-4-one]
IC50 [1]: 25 nM | IC50 [2]: 23.1 nM

COCCOc1cc(F)c(N2CCN(c3nc4c(cnn4C)c(=O)[nH]3)CC2)c(F)c1 [Compound I-1, 6-[4-[2 6-difluoro-4-(2-methoxyethoxy)phenyl]piperazin-1-yl]-1-methyl-5H-pyrazolo[3 4-d]pyrimidin-4-one]
IC50 [1]: 7.6 nM | IC50 [2]: 24.4 nM

Cn1ncc2c(=O)[nH]c(-c3ccc(C(F)(F)F)cn3)nc21 [Compound I-50, 1-methyl-6-[5-(trifluoromethyl)-2-pyridyl]-5H-pyrazolo[3 4-d]pyrimidin-4-one]
IC50 [1]: 286 nM | IC50 [2]: 325 nM

Cn1ncc2c(=O)[nH]c(N3CCN(c4ccccc4F)CC3)nc21 [Compound I-3, 6-[4-(2-fluorophenyl)piperazin-1-yl]-1-methyl-5H-pyrazolo[3 4-d]pyrimidin-4-one]
IC50 [1]: 27 nM | IC50 [2]: 34.4 nM

Cn1ncc2c(=O)[nH]c(N3CCN(c4c(F)cc(N)cc4F)CC3)nc21 [Compound I-54, 6-[4-(4-amino-2 6-difluoro-phenyl)piperazin-1-yl]-1-methyl-5H-pyrazolo[3 4-d]pyrimidin-4-one]
IC50 [1]: 21 nM | IC50 [2]: 25 nM

Cn1ncc2c(=O)[nH]c(N3CCN(CC4CCCO4)CC3)nc21 (stereo not shown) [Compound I-32, 1-methyl-6-[4-(tetrahydrofuran-2-ylmethyl)piperazin-1-yl]-5H-pyrazolo[3 4-d]pyrimidin-4-one]
IC50 [1]: 155 nM | IC50 [2]: 178 nM

Cn1ncc2c(=O)[nH]c(N3CCN(c4ccc(C#N)cc4F)CC3)nc21 [Compound I-28, 3-fluoro-4-[4-(1-methyl-4-oxo-5H-pyrazolo[3 4-d]pyrimidin-6-yl)piperazin-1-yl]benzonitrile]
IC50 [1]: 51 nM | IC50 [2]: 76.5 nM

Cn1ncc2c(=O)[nH]c(N3CCN(c4c(F)cccc4F)CC3)nc21 [Compound I-2, 6-[4-(2 6-difluorophenyl)piperazin-1-yl]-1-methyl-5H-pyrazolo[3 4-d]pyrimidin-4-one]
IC50 [1]: 10.9 nM | IC50 [2]: 18.7 nM

COc1cccnc1N1CCN(c2nc3c(cnn3C)c(=O)[nH]2)CC1 [Compound I-43, 6-[4-(3-methoxy-2-pyridyl)piperazin-1-yl]-1-methyl-5H-pyrazolo[3 4-d]pyrimidin-4-one]
IC50 [1]: 47 nM | IC50 [2]: 55.3 nM

6-[4-(2- fluorophenyl)piperazin-1- yl]-1-methyl-5H- pyrazolo[4 3-c]pyridin-4- one [Compound I-7]
IC50 [1, 3]: 46 nM | IC50 [2]: 41.2 nM

Cn1ncc2c(=O)[nH]c(N3CCN(c4cc(O)cc(F)c4F)CC3)nc21 [Compound I-57, 6-[4-(2 3-difluoro-5-hydroxy-phenyl)piperazin-1-yl]-1-methyl-5H-pyrazolo[3 4-d]pyrimidin-4-one]
IC50 [1]: 66 nM | IC50 [2]: 56.4 nM

Cn1ncc2c(=O)[nH]c(N3CCN(c4c(F)cc([N+](=O)[O-])cc4F)CC3)nc21 [Compound I-49, 6-[4-(2 6-difluoro-4-nitro-phenyl)piperazin-1-yl]-1-methyl-5H-pyrazolo[3 4-d]pyrimidin-4-one]
IC50 [1]: 34 nM | IC50 [2]: 32.6 nM

Cn1ncc2c(=O)[nH]c(N3CCN(c4c(F)cc(C#N)cc4F)CC3)nc21 [Compound I-56, 3 5-difluoro-4-[4-(1-methyl-4-oxo-5H-pyrazolo[3 4-d]pyrimidin-6-yl)piperazin-1-yl]benzonitrile]
IC50 [1]: 55 nM | IC50 [2]: 63.2 nM

Cn1ncc2c(=O)[nH]c(N3CCN(C4CCCC4)CC3)nc21 [Compound I-37, 6-(4-cyclopentylpiperazin-1-yl)-1-methyl-5H-pyrazolo[3 4-d]pyrimidin-4-one]
IC50 [1]: 165 nM | IC50 [2]: 178 nM

Cn1ncc2c(=O)[nH]c(-c3ccc(C(F)(F)F)cc3)nc21 [Compound I-4, 1-methyl-6-[4-(trifluoromethyl)phenyl]-5H-pyrazolo[3 4-d]pyrimidin-4-one]
IC50 [1]: 25 nM | IC50 [2]: 34.5 nM

COCCOc1cc(F)cc(N2CCN(c3nc4c(cnn4C)c(=O)[nH]3)CC2)c1 [Compound I-55, 6-[4-[3-fluoro-5-(2-methoxyethoxy)phenyl]piperazin-1-yl]-1-methyl-5H-pyrazolo[3 4-d]pyrimidin-4-one]
IC50 [1]: 114 nM | IC50 [2]: 147 nM

6-[4-(4-fluorophenyl)-1- piperidyl]-1-methyl-5H- pyrazolo[4 3-c]pyridin-4- one [Compound I-8]
IC50 [1, 3]: 42 nM | IC50 [2]: 42.8 nM

Cn1ncc2c(=O)[nH]c(N3CCN(c4ccccc4C#N)CC3)cc21 [Compound I-17, 2-[4-(1-methyl-4-oxo-5H-pyrazolo[4 3-c]pyridin-6-yl)piperazin-1-yl]benzonitrile]
IC50 [1]: 103 nM | IC50 [2]: 97 nM

Cn1ncc2c(=O)[nH]c(N3CCN(c4ccc(F)cc4F)CC3)nc21 [Compound I-14, 6-[4-(2 4-difluorophenyl)piperazin-1-yl]-1-methyl-5H-pyrazolo[3 4-d]pyrimidin-4-one]
IC50 [1]: 39 nM | IC50 [2]: 47.1 nM

Cn1ncc2c(=O)[nH]c(N3CCC(c4ccc(F)cc4)CC3)nc21 [Compound I-5, 6-[4-(4-fluorophenyl)-1-piperidyl]-1-methyl-5H-pyrazolo[3 4-d]pyrimidin-4-one]
IC50 [1]: 31 nM | IC50 [2]: 37.6 nM

Cn1ncc2c(=O)[nH]c(N3CCN(c4ccccc4C(F)(F)F)CC3)nc21 [Compound I-19, 1-methyl-6-[4-[2-(trifluoromethyl)phenyl]piperazin-1-yl]-5H-pyrazolo[3 4-d]pyrimidin-4-one]
IC50 [1]: 27 nM | IC50 [2]: 32.6 nM

Cn1ncc2c(=O)[nH]c(N3CCN(c4ccnc(Cl)c4Cl)CC3)nc21 [Compound I-46, 6-[4-(2 3-dichloro-4-pyridyl)piperazin-1-yl]-1-methyl-5H-pyrazolo[3 4-d]pyrimidin-4-one]
IC50 [1]: 61 nM | IC50 [2]: 93.9 nM

Cn1ncc2c(=O)[nH]c(N3CCN(c4ccc(-c5nnn[nH]5)cc4F)CC3)nc21 [Compound I-31, 6-[4-[2-fluoro-4-(1H-tetrazol-5-yl)phenyl]piperazin-1-yl]-1-methyl-5H-pyrazolo[3 4-d]pyrimidin-4-one]
IC50 [1]: 26 nM | IC50 [2]: 24.6 nM
